Experimental findings from US20240366567A1, “PHARMACEUTICAL COMBINATIONS COMPRISING A KRAS G12C INHIBITOR AND USES THEREOF FOR THE TREATMENT OF CANCERS” (NOVARTIS AG, priority 2021, published 2024) are described below.

Experiment [1] has as its system KRAS G12C, PIK3CA and CDKN2A-mutated LU99 xenograft. Nature of the experiment: LU99 xenograft, single agent and double, triple, quadruple combinations (Example 8). Type of experiment: in vivo, mice. Particulars: 7.5 mg/kg daily.
Experiment [2] relates to KRAS G12C and CDKN2A-mutated LU99 xenograft. Nature of the experiment: LU99 xenograft, Compound A with ribociclib (Example 7). The note with it: LU99 xenograft in mice. It counts as in vivo.

As for `C[C@@H]1OCC2(CCN(c3cnc(Sc4ccnc(N)c4Cl)c(N)n3)CC2)[C@@H]1N` [TNO155, (3S,4S)-8-(6-amino-5-((2-amino-3-chloropyridin-4-yl)thio)pyrazin-2-yl)-3-methyl-2-oxa-8-azaspiro[4.5]decan-4-amine, reference compound], in experiment [1], the “effect on tumor growth compared to the vehicle group” value is recorded as “did not have any effect on tumor growth”.
Take `CN(C)C(=O)c1cc2cnc(Nc3ccc(N4CCNCC4)cn3)nc2n1C1CCCC1` [ribociclib, reference compound]: the “effect on tumor growth” value in experiment [2] is “did not have any effect on tumor growth”.
